Data: the supplement of paper PMC13380429
± gives the standard deviation of the averaged measurements.

Key:
Conditions in all cases: 72 h
[1] = tested on: Vero E6; assay: drug sensitivity score (DSS) for viability; higher = more toxic; extreme values may be limits of the assay
[2] = tested on: Calu-3; assay: as above
[3] = tested on: Caco-2; assay: as above
[4] = tested on: HepG2; assay: as above
[5] = tested on: U2OS; assay: as above
[6] = tested on: Vero E6; assay: cell viability relative to DMSO; higher = less toxic
[7] = tested on: Calu-3; assay: as above
[8] = tested on: Caco-2; assay: as above
[9] = tested on: HepG2; assay: as above
[10] = tested on: U2OS; assay: as above
[11] = tested on: Vero E6; assay: relative viability EC50 (midpoint between 100% and the lowest measured viability); higher = less toxic
[12] = tested on: Calu-3; assay: as above
[13] = tested on: Caco-2; assay: as above
[14] = tested on: HepG2; assay: as above
[15] = tested on: U2OS; assay: as above

| SMILES | drug sensitivity score [1] | drug sensitivity score [2] | drug sensitivity score [3] | drug sensitivity score [4] | drug sensitivity score [5] | cell viability ([6]; 1 nM) | cell viability ([6]; 10 nM) | cell viability ([6]; 100 nM) | cell viability ([6]; 1000 nM) | cell viability ([6]; 10000 nM) | cell viability ([7]; 1 nM) | cell viability ([7]; 10 nM) | cell viability ([7]; 100 nM) | cell viability ([7]; 1000 nM) | cell viability ([7]; 10000 nM) | cell viability ([8]; 1 nM) | cell viability ([8]; 10 nM) | cell viability ([8]; 100 nM) | cell viability ([8]; 1000 nM) | cell viability ([8]; 10000 nM) | cell viability ([9]; 1 nM) | cell viability ([9]; 10 nM) | cell viability ([9]; 100 nM) | cell viability ([9]; 1000 nM) | cell viability ([9]; 10000 nM) | cell viability ([10]; 1 nM) | cell viability ([10]; 10 nM) | cell viability ([10]; 100 nM) | cell viability ([10]; 1000 nM) | cell viability ([10]; 10000 nM) | relative viability EC50 [11] | relative viability EC50 [12] | relative viability EC50 [13] | relative viability EC50 [14] | relative viability EC50 [15] |
| --- | --- | --- | --- | --- | --- | --- | --- | --- | --- | --- | --- | --- | --- | --- | --- | --- | --- | --- | --- | --- | --- | --- | --- | --- | --- | --- | --- | --- | --- | --- | --- | --- | --- | --- | --- |
| CC(C)(Sc1ccc(CCN(CCCCC2CCCCC2)C(=O)NC2CCCCC2)cc1)C(=O)O [GW-7647] | 0 | 0 | 0 | 0 | 0 | 97.3% | 100% | 91.1% | 97.7% | 110% | 97.9% | 110% | 100% | 94.6% | 100% | 87.7% | 101% | 98.3% | 104% | 103% | 87% | 95.3% | 99.1% | 87% | 101% | 101% | 101% | 105% | 96.2% | 98.2% | > 10 µM | > 10 µM | > 10 µM | > 10 µM | > 10 µM |
| CC[C@@H](c1ccc(F)c(F)c1)n1c(C(=O)OC)c(-c2ccno2)[nH]c1=S | 0 | 0 | 0 | 0 | 0 | 103% | 95.4% | 97.8% | 99.9% | 96.7% | 96.1% | 95.1% | 98.6% | 91.3% | 99.8% | 97.9% | 98.3% | 98.4% | 96.9% | 94.2% | 115% | 98.8% | 93.3% | 99.7% | 90.4% | 99.7% | 94% | 98.9% | 96% | 95.7% | > 10 µM | > 10 µM | > 10 µM | > 10 µM | > 10 µM |
| O=C1c2c(O)cccc2Cc2cccc(O)c21 [anthralin] | 0 | 0 | 0 | 0 | 0 | 102% | 88.7% | 96% | 78.3% | 100% | 103% | 98.5% | 89.8% | 95.9% | 108% | 102% | 95.8% | 97.3% | 96.9% | 93.4% | 90.2% | 103% | 119% | 105% | 92.3% | 92.3% | 97.6% | 97% | 98.8% | 102% | > 10 µM | > 10 µM | > 10 µM | > 10 µM | > 10 µM |
| C[C@H](CCC(=O)O)[C@H]1CC[C@H]2[C@@H]3[C@@H](O)C[C@@H]4C[C@H](O)CC[C@]4(C)[C@H]3CC[C@]12C [ursodiol] | 0 | 0 | 0.95 ± 1.3 | 0 | 0 | 97.3 ± 3.1% | 101 ± 5.3% | 100 ± 6.9% | 104 ± 2.4% | 103 ± 14% | 97% | 96.6% | 102% | 87.2% | 105% | 106 ± 2.8% | 102 ± 3.9% | 98.4 ± 0.14% | 94.9 ± 5.4% | 85.8 ± 15% | 97.7 ± 6.4% | 107 ± 4.5% | 97.2 ± 8.1% | 108 ± 7.4% | 106 ± 4.2% | 104% | 94.3% | 96.2% | 93.2% | 108% | > 10 µM | > 10 µM | > 10 µM | > 10 µM | > 10 µM |
| CCNC(C)CN1CCc2c(c(=O)oc3ccccc23)C1 (stereo not given) [CI-923] | 0 | 0 | 0 | 0 | 0 | 99.7% | 103% | 104% | 95.9% | 94.5% | 99.5% | 109% | 100% | 111% | 99.1% | 103% | 102% | 103% | 97.9% | 93.6% | 99.6% | 93.1% | 105% | 97.5% | 109% | 99% | 99.3% | 95.9% | 101% | 95.8% | > 10 µM | > 10 µM | > 10 µM | > 10 µM | > 10 µM |
| CCCCCCCCC(=O)NCc1cc(OC)c(O)cc1I [6-iodo-nordihydrocapsaicin] | 0 | 0 | 0.1 | 0 | 0 | 88.5% | 99.4% | 92.2% | 92.5% | 104% | 104% | 98.6% | 108% | 109% | 104% | 97.9% | 101% | 103% | 97.7% | 88.6% | 96.6% | 110% | 95.6% | 104% | 103% | 97.4% | 98% | 101% | 96.6% | 92.5% | > 10 µM | > 10 µM | > 10 µM | > 10 µM | > 10 µM |
| C[C@@H](NC(=O)[C@@H](N)Cc1ccc(O)cc1)C(=O)NCC(=O)N(C)[C@@H](Cc1ccccc1)C(=O)N[C@H](CO)CC[S+](C)[O-] (stereo not given in full) [FK-33-824] | 0 | 0 | 0 | 0 | 0 | 99.5% | 97.5% | 93.3% | 97% | 107% | 98.7% | 94.1% | 99.4% | 92.1% | 92.6% | 98% | 95.7% | 90.7% | 96.1% | 102% | 98.9% | 93.7% | 109% | 101% | 100% | 98.8% | 106% | 98.6% | 101% | 100% | > 10 µM | > 10 µM | > 10 µM | > 10 µM | > 10 µM |
| CCN(CC)CC1CCCCN1CC(=O)N1c2ccccc2C(=O)Nc2cccnc21 (stereo not given) [otenzepad] | 0 | 0 | 0 | 0 | 0 | 97.8% | 97% | 95.7% | 92.4% | 99.5% | 102% | 105% | 96% | 96.3% | 101% | 104% | 104% | 108% | 97.6% | 98.8% | 94.3% | 104% | 92.3% | 101% | 98.9% | 100% | 102% | 102% | 100% | 97.4% | > 10 µM | > 10 µM | > 10 µM | > 10 µM | > 10 µM |
| CN1C(=O)CN=C(c2ccccc2)c2cc(Cl)ccc21 [diazepam] | 0.2 | 0 | 2.2 | 0 | 0 | 97.8% | 100% | 101% | 98.6% | 86.7% | 110% | 92.4% | 96.6% | 98% | 110% | 104% | 101% | 85.6% | 87.6% | 96% | 94.8% | 105% | 101% | 100% | 101% | 107% | 102% | 107% | 99.6% | 103% | > 10 µM | > 10 µM | > 10 µM | > 10 µM | > 10 µM |
| CCn1c2ccccc2c2cc(CNCc3ccccc3OC)ccc21 [HLCL-61] | 0.1 | 0 | 0 | 1.1 | 0 | 91.3% | 93.2% | 88.2% | 88.8% | 93.5% | 111% | 99.5% | 95.7% | 106% | 87.9% | 103% | 92% | 94.6% | 107% | 101% | 106% | 95.4% | 93.5% | 95.6% | 79.2% | 100% | 96.6% | 99.2% | 102% | 94.9% | > 10 µM | > 10 µM | > 10 µM | > 10 µM | > 10 µM |
| CC[C@H]1OC(=O)[C@H](C)[C@@H](O[C@H]2C[C@@](C)(OC)[C@@H](O)[C@H](C)O2)[C@H](C)[C@@H](O[C@@H]2O[C@H](C)C[C@H](N(C)C)[C@H]2O)[C@](C)(O)C[C@@H](C)C(=O)[C@H](C)[C@@H](O)[C@]1(C)O [erythromycin] | 0 | 0.5 | 0 | 0 | 0 | 101% | 97.9% | 101% | 97.4% | 99.5% | 94.2% | 102% | 97.5% | 90% | 86.9% | 97.9% | 100% | 97.2% | 94.4% | 96.4% | 100% | 83.5% | 98.1% | 91.4% | 90.4% | 104% | 102% | 102% | 98% | 101% | > 10 µM | > 10 µM | > 10 µM | > 10 µM | > 10 µM |
| C[C@]12CC[C@H]3[C@@H](CC[C@]4(O)C[C@@H](O)CC[C@]34C=O)[C@@]1(O)CC[C@@H]2C1=CC(=O)OC1 [K-strophanthidin] | 21.8 | 5.4 | 7.3 | 11.1 | 9.3 | 99.5% | 98.8% | 72.6% | 1.9% | 0.9% | 98.2% | 102% | 107% | 92% | 25.8% | 87.6% | 110% | 99.4% | 68.5% | 38.8% | 96.4% | 88.6% | 102% | 46.2% | 14.8% | 96.9% | 98.7% | 96.6% | 72.4% | 5.2% | 0.151 µM | 2.28 µM | 0.975 µM | 0.807 µM | 1.43 µM |
| Cc1c(Cc2ccc3ccccc3n2)c2cc(F)ccc2n1CC(=O)O | 0 | 0 | 0 | 0 | 0 | 102% | 96.7% | 99.5% | 97.8% | 101% | 95.8% | 108% | 96.8% | 110% | 111% | 94.6% | 99.4% | 98.7% | 98.4% | 109% | 119% | 96.9% | 109% | 108% | 105% | 94.7% | 101% | 95.4% | 97.9% | 108% | > 10 µM | > 10 µM | > 10 µM | > 10 µM | > 10 µM |
| CS(=O)(=O)c1ccc(-c2cnc(NCc3ccco3)n3cnnc23)cc1 [EED226] | 0 | 0 | 0 | 0.1 | 0 | 107% | 100% | 103% | 105% | 98% | 102% | 102% | 94.4% | 111% | 111% | 95.7% | 82.8% | 104% | 88.1% | 103% | 99.8% | 92.8% | 94.6% | 102% | 87% | 98.3% | 97.1% | 98.5% | 97.4% | 98% | > 10 µM | > 10 µM | > 10 µM | > 10 µM | > 10 µM |
